Consider one compound from patent publication US20250255821A1, “SOLID DISPERSIONS COMPRISING A SGC STIMULATOR” (Cyclerion Therapeutics, Inc., priority 2015, published 2025).

The data set can be described thus: Solubility of Compound I in aqueous media. The class given is physicochemical. The note with it: pH independent.

With `OC(CNc1nc(-c2cc(-c3ccon3)n(Cc3ccccc3F)n2)ncc1F)(C(F)(F)F)C(F)(F)F` [Compound I, 1,1,1,3,3,3-hexafluoro-2-(((5-fluoro-2-(1-(2-fluorobenzyl)-5-(isoxazol-3-yl)-1H-pyrazol-3-yl)pyrimidin-4-yl)amino)methyl)propan-2-ol], the “Solubility in aqueous media” value is “low solubility”.
